Laboratory results published in patent publication US20100267561A1, “HERBICIDAL PYRIDAZINONE DERIVATIVES” (priority 2007, published 2010).

What was measured:
Test in all cases: Test B pre-/postemergence plant response
Assay type in all cases: in vivo
[1] = system: eastern black (E.B.) nightshade (Solanum ptycanthum); conditions: Preemergence; for Nightshade, E. B. plant response rating: scale 0 to 100
Method in brief: (§1)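 Visual scoring from 0 (no effect) to 100 (complete control) against untreated controls was done 13 to 15 days after greenhouse treatment. Chemicals were formulated in a surfactant-containing non-phytotoxic solvent and applied to soil preemergence or to 1- to 4-leaf (2-18 cm) plants postemergence.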

corn (Zea mays) = system: corn (Zea mays)
Method in brief: as §1

kochia (Kochia scoparia) = system: kochia (Kochia scoparia)
Method in brief: as §1

[2] = system: catchweed bedstraw (Galium aparine); conditions: Preemergence; for Galium plant response rating: scale 0 to 100
Method in brief: as §1

[3] = system: morningglory (Ipomoea coccinea)
Method in brief: as §1

[4] = system: cocklebur (Xanthium strumarium); conditions: for Cocklebur plant response rating: 8 g ai/ha
Method in brief: as §1

[5] = system: surinam grass (Brachiaria decumbens)
Method in brief: as §1

[6] = system: green foxtail (Setaria viridis)
Method in brief: as §1

[7] = system: common ragweed (Ambrosia elation)
Method in brief: as §1

[8] = system: Italian ryegrass (Lolium multiflorum)
Method in brief: as §1

[9] = system: Russian thistle (Salsola iberica); conditions: Preemergence; for Russian Thistle plant response rating: scale 0 to 100
Method in brief: as §1

[10] = system: yellow nutsedge (Cyperus esculentus)
Method in brief: as §1

wild oat (Avena fatua) = system: wild oat (Avena fatua)
Method in brief: as §1

[11] = system: lambsquarters (Chenopodium album)
Method in brief: as §1

[12] = 31 g ai/ha, scale 0 to 100 (0 no effect, 100 complete control)
[13] = 62 g ai/ha, 0 to 100 scale, 0 no effect, 100 complete control
[14] = 8 g ai/ha, postemergence, 0-100 scale
[15] = Postemergence, 16 g ai/ha, scale 0 to 100
[16] = Postemergence, 31 g ai/ha, scale 0 to 100
[17] = Postemergence, 62 g ai/ha, scale 0 to 100, 0 no effect, 100 complete control
[18] = Preemergence, 31 g ai/ha, scale 0 to 100 (0 no effect, 100 complete control)
[19] = Preemergence, 62 g ai/ha, 0 to 100 scale, 0 no effect, 100 complete control
[20] = Preemergence, 8 g ai/ha, scale 0 to 100
[21] = Preemergence, 16 g ai/ha, scale 0 to 100

Cc1cc(-c2ccc(Cl)cc2)nn1-c1c(OC(=O)OCC(C)C)cnn(C)c1=O [Compound 57]
Plant response rating, Nightshade, E. B. [1, 12]: 0 | Plant response rating, Nightshade, E. B. [1, 13]: 0 | Nightshade, E. B. plant response rating ([1]; 8 g ai/ha): 0 | Nightshade, E. B. plant response rating ([1]; 16 g ai/ha): 0 | Corn plant response rating (corn (Zea mays); [14]): 0 | Plant response rating, Corn (corn (Zea mays); [15]): 0 | Plant response rating, Corn (corn (Zea mays); [16]): 98 | Plant response rating, Corn (corn (Zea mays); [17]): 100 | Plant response rating, Corn (corn (Zea mays); [18]): 85 | Plant response rating, Corn (corn (Zea mays); [19]): 95 | Corn plant response rating (corn (Zea mays); [20]): 0 | Corn plant response rating (corn (Zea mays); [21]): 60 | Kochia plant response rating (kochia (Kochia scoparia); [14]): 0 | Plant response rating, Kochia (kochia (Kochia scoparia); [15]): 0 | Plant response rating, Kochia (kochia (Kochia scoparia); [16]): 0 | Plant response rating, Kochia (kochia (Kochia scoparia); [17]): 0 | Plant response rating, Kochia (kochia (Kochia scoparia); [18]): 0 | Plant response rating, Kochia (kochia (Kochia scoparia); [19]): 0 | Kochia plant response rating (kochia (Kochia scoparia); [20]): 0 | Kochia plant response rating (kochia (Kochia scoparia); [21]): 0 | Plant response rating, Galium [2, 12]: 0 | Plant response rating, Galium [2, 13]: 0 | Galium plant response rating ([2]; 8 g ai/ha): 0 | Galium plant response rating ([2]; 16 g ai/ha): 0 | Morningglory plant response rating [3, 14]: 0 | Plant response rating, Morningglory [3, 15]: 0 | Plant response rating, Morningglory [3, 16]: 0 | Plant response rating, Morningglory [3, 17]: 0 | Plant response rating, Morningglory [3, 18]: 0 | Plant response rating, Morningglory [3, 19]: 0 | Morningglory plant response rating [3, 20]: 0 | Morningglory plant response rating [3, 21]: 0 | Cocklebur plant response rating ([4]; postemergence, 0-100 scale): 0 | Plant response rating, Cocklebur [4, 15]: 0 | Plant response rating, Cocklebur [4, 16]: 0 | Plant response rating, Cocklebur [4, 17]: 0 | Plant response rating, Cocklebur ([4]; Preemergence, 16 g ai/ha, scale 0 to 100 (0 no effect, 100 complete control)): 0 | Plant response rating, Cocklebur [4, 18]: 0 | Plant response rating, Cocklebur [4, 19]: 0 | Cocklebur plant response rating ([4]; Preemergence, scale 0 to 100): 0 | Surinam Grass plant response rating [5, 14]: 65 | Plant response rating, Surinam Grass [5, 15]: 75 | Plant response rating, Surinam Grass [5, 16]: 100 | Plant response rating, Surinam Grass [5, 17]: 100 | Plant response rating, Surinam Grass [5, 18]: 100 | Plant response rating, Surinam Grass [5, 19]: 100 | Surinam Grass plant response rating [5, 20]: 60 | Surinam Grass plant response rating [5, 21]: 98 | Foxtail, Green plant response rating [6, 14]: 80 | Plant response rating, Foxtail, Green [6, 15]: 95 | Plant response rating, Foxtail, Green [6, 16]: 100 | Plant response rating, Foxtail, Green [6, 17]: 100 | Plant response rating, Foxtail, Green [6, 18]: 100 | Plant response rating, Foxtail, Green [6, 19]: 100 | Foxtail, Green plant response rating [6, 20]: 70 | Foxtail, Green plant response rating [6, 21]: 100 | Ragweed plant response rating [7, 14]: 0 | Plant response rating, Ragweed [7, 15]: 0 | Plant response rating, Ragweed [7, 16]: 0 | Plant response rating, Ragweed [7, 17]: 0 | Plant response rating, Ragweed [7, 18]: 0 | Plant response rating, Ragweed [7, 19]: 0 | Ragweed plant response rating [7, 20]: 0 | Ragweed plant response rating [7, 21]: 0 | Ryegrass, Italian plant response rating [8, 14]: 80 | Plant response rating, Ryegrass, Italian [8, 15]: 95 | Plant response rating, Ryegrass, Italian [8, 16]: 95 | Plant response rating, Ryegrass, Italian [8, 17]: 95 | Plant response rating, Ryegrass, Italian [8, 18]: 95 | Plant response rating, Ryegrass, Italian [8, 19]: 100 | Ryegrass, Italian plant response rating [8, 20]: 0 | Ryegrass, Italian plant response rating [8, 21]: 70 | Plant response rating, Russian Thistle [9, 12]: 0 | Plant response rating, Russian Thistle [9, 13]: 0 | Russian Thistle plant response rating ([9]; 8 g ai/ha): 0 | Russian Thistle plant response rating ([9]; 16 g ai/ha): 0 | Nutsedge, Yellow plant response rating [10, 14]: 0 | Plant response rating, Nutsedge, Yellow [10, 15]: 0 | Plant response rating, Nutsedge, Yellow [10, 16]: 0 | Plant response rating, Nutsedge, Yellow [10, 17]: 0 | Plant response rating, Nutsedge, Yellow [10, 18]: 0 | Plant response rating, Nutsedge, Yellow [10, 19]: 0 | Nutsedge, Yellow plant response rating [10, 20]: 0 | Nutsedge, Yellow plant response rating [10, 21]: 0 | Oat, Wild plant response rating (wild oat (Avena fatua); [14]): 85 | Plant response rating, Oat, Wild (wild oat (Avena fatua); [15]): 85 | Plant response rating, Oat, Wild (wild oat (Avena fatua); [16]): 95 | Plant response rating, Oat, Wild (wild oat (Avena fatua); [17]): 98 | Plant response rating, Oat, Wild (wild oat (Avena fatua); [18]): 70 | Plant response rating, Oat, Wild (wild oat (Avena fatua); [19]): 80 | Oat, Wild plant response rating (wild oat (Avena fatua); [20]): 0 | Oat, Wild plant response rating (wild oat (Avena fatua); [21]): 60 | Lambsquarters plant response rating [11, 14]: 0 | Plant response rating, Lambsquarters [11, 15]: 0 | Plant response rating, Lambsquarters [11, 16]: 0 | Plant response rating, Lambsquarters [11, 17]: 0 | Plant response rating, Lambsquarters [11, 18]: 20 | Plant response rating, Lambsquarters [11, 19]: 65 | Lambsquarters plant response rating [11, 20]: 0 | Lambsquarters plant response rating [11, 21]: 0
